Source: patent US9085555B2, “Complement pathway modulators and uses thereof” (priority 2011, dated 2015)

What follows are compounds tested against Factor D (Homo sapiens (Human), UniProt P00746) (assay: biochemical). Details: read-out: IC50.
Format: biochemical

Factor D, sequence (P00746 26-253): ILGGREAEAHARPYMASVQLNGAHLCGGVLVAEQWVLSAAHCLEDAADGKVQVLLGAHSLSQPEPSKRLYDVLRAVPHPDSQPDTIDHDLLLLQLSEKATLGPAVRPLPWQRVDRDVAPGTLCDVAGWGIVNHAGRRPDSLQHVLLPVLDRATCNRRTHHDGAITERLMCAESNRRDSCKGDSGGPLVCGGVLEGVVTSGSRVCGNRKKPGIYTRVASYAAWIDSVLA

**Q.** For `CC(=O)c1cn(CC(=O)N2C[C@@H]3C[C@@H]3[C@H]2C(=O)NCc2cccc(Cl)c2F)c2cnccc12` [Example 544, (1S,2S,5R)-3-[2-(3-Acetyl-pyrrolo[2,3-c]pyridin-1-yl)-acetyl]-3-aza-bicyclo[3.1.0] hexane-2-carboxylic acid 3-chloro-2-fluoro-benzylamide], which IC50 is on record?
**A.** 1110 nM

**Q.** With `COC(=O)Cc1ccc2c(C(C)=O)cn(CC(=O)N3[C@@H]4C[C@@H]4C[C@H]3C(=O)NCc3cccc(Cl)c3F)c2c1` [Example 545, (3-Acetyl-1-{2-[(1R,3S,5R)-3-(3-chloro-2-fluoro-benzylcarbamoyl)-2-aza-bicyclo[3.1.0]hex-2-yl]-2-oxo-ethyl}-1H-indol-6-yl)-acetic acid methyl ester] as the compound, how does the IC50 read?
**A.** 113 nM

**Q.** With `CC(=O)c1cn(CC(=O)N2C[C@H](F)C[C@H]2C(=O)NCc2cccc(Cl)c2F)c2ncccc12` [Example 547, (2S,4R)-1-[2-(3-Acetyl-pyrrolo[2,3-b]pyridin-1-yl)-acetyl]-4-fluoro-pyrrolidine-2-carboxylic acid 3-chloro-2-fluoro-benzylamide] as the compound, how does the IC50 read?
**A.** 38 nM

**Q.** With `COC(=O)c1ccc2c(C(C)=O)cn(CC(=O)N3C[C@](C)(F)C[C@H]3C(=O)NCc3cccc(Cl)c3F)c2c1` [Example 548, 3-Acetyl-1-{2-[(2S,4R)-2-(3-chloro-2-fluoro-benzylcarbamoyl)-4-fluoro-4-methyl-pyrrolidin-1-yl]-2-oxo-ethyl}-1H-indole-6-carboxylic acid methyl ester] as the compound, how does the IC50 read?
**A.** 363 nM

**Q.** `COC(=O)Cc1ccc2c(C(C)=O)cn(CC(=O)N3C[C@H](F)C[C@H]3C(=O)NCc3cccc(Cl)c3F)c2c1` [Example 549, (3-Acetyl-1-{2-[(2S,4R)-2-(3-chloro-2-fluoro-benzylcarbamoyl)-4-fluoro-pyrrolidin-1-yl]-2-oxo-ethyl}-1H-indol-6-yl)-acetic acid methyl ester] was tested. Which IC50 did it give?
**A.** 69 nM

**Q.** With `CC(=O)c1cn(CC(=O)N2[C@@H]3C[C@@H]3C[C@H]2C(=O)NCc2cccc(Cl)c2F)c2cnccc12` [Example 550, (1R,3S,5R)-2-[2-(3-Acetyl-pyrrolo[2,3-c]pyridin-1-yl)-acetyl]-2-aza-bicyclo[3.1.0]hexane-3-carboxylic acid 3-chloro-2-fluorobenzylamide] as the compound, how does the IC50 read?
**A.** 33 nM

**Q.** How did the IC50 turn out when `O=C(CO)c1cn(CC(=O)N2C[C@H](F)C[C@H]2C(=O)N[C@H](CF)c2cccc(Br)c2)c2ccccc12` [Example 551, (2S,4R)-4-Fluoro-1-{2-[3-(2-hydroxy-acetyl)-indol-1-yl]-acetyl}-pyrrolidine-2-carboxylic acid [(S)-1-(3-bromo-phenyl)-2-fluoro-ethyl]-amide] was run?
**A.** 899 nM

**Q.** `CC(=O)c1cn(CC(=O)N2C[C@H](F)C[C@H]2C(=O)NCc2cccc(Cl)c2F)c2cnccc12` [Example 552, (2S,4R)-1-[2-(3-Acetyl-pyrrolo[2,3-c]pyridin-1-yl)-acetyl]-4-fluoro-pyrrolidine-2-carboxylic acid 3-chloro-2-fluoro-benzylamide] was tested. Which IC50 did it give?
**A.** 40 nM

**Q.** Which IC50 does the source give for `CC(=O)c1cn(CC(=O)N2[C@@H]3C[C@@H]3C[C@H]2C(=O)NCc2cccc(Cl)c2F)c2cccnc12` [Example 553, (1R,3S,5R)-2-[2-(3-Acetyl-pyrrolo[3,2-b]pyridin-1-yl)-acetyl]-2-aza-bicyclo[3.1.0] hexane-3-carboxylic acid 3-chloro-2-fluoro-benzylamide] here?
**A.** 5300 nM

**Q.** How did the IC50 turn out when `C[C@@]1(F)C[C@@H](C(=O)NCc2cccc(Cl)c2F)N(C(=O)Cn2cc(C(=O)C(F)(F)F)c3ccccc32)C1` [Example 554, (2S,4R)-4-Fluoro-4-methyl-1-{2-[3-(2,2,2-trifluoro-acetyl)-indol-1-yl]-acetyl}-pyrrolidine-2-carboxylic acid 3-chloro-2-fluoro-benzylamide] was run?
**A.** 44 nM

**Q.** `CC(=O)c1cn(CC(=O)N2C[C@@H](N(C)C)[C@H](F)[C@H]2C(=O)NCc2cccc(Cl)c2F)c2ccccc12` [Example 555, (2R,3S,4R)-1-[2-(3-Acetyl-indol-1-yl)-acetyl]-4-dimethylamino-3-fluoro-pyrrolidine-2-carboxylic acid 3-chloro-2-fluoro-benzylamide] was tested. Which IC50 did it give?
**A.** 2270 nM

**Q.** `O=C(CO)c1cn(CC(=O)N2[C@@H]3C[C@@H]3C[C@H]2C(=O)NCc2cccc(Cl)c2F)c2ccccc12` [Example 556, (1R,3S,5R)-2-{2-[3-(2-Hydroxy-acetyl)-indol-1-yl]-acetyl}-2-aza-bicyclo[3.1.0] hexane-3-carboxylic acid 3-chloro-2-fluoro-benzylamide] was tested. Which IC50 did it give?
**A.** 25 nM

**Q.** `CC(=O)c1cn(CC(=O)N2[C@@H]3C[C@@H]3C[C@H]2C(=O)N[C@H](CCO)c2cccc(Cl)c2F)c2ncccc12` [Example 557, (1R,3S,5R)-2-[2-(3-Acetyl-pyrrolo[2,3-b]pyridin-1-yl)-acetyl]-2-aza-bicyclo[3.1.0] hexane-3-carboxylic acid [(R)-1-(3-chloro-2-fluoro-phenyl)-3-hydroxy-propyl]-amide] was tested. Which IC50 did it give?
**A.** 134 nM

**Q.** For `CC(=O)c1cn(CC(=O)N2[C@@H]3C[C@@H]3C[C@H]2C(=O)Nc2cccc(OC(F)(F)F)c2)c2ncccc12` [Example 558, (1R,3S,5R)-2-[2-(3-Acetyl-pyrrolo[2,3-b]pyridin-1-yl)-acetyl]-2-aza-bicyclo[3.1.0] hexane-3-carboxylic acid (3-trifluoromethoxy-phenyl)-amide], which IC50 is on record?
**A.** 1990 nM

**Q.** Which IC50 does the source give for `COc1ccc2c(c1)c(C=O)cn2CC(=O)N1C[C@H](F)C[C@H]1C(=O)NCc1cccc(Cl)c1F` [Example 560, (2S,4R)-4-Fluoro-1-[2-(3-formyl-5-methoxy-indol-1-yl)-acetyl]-pyrrolidine-2-carboxylic acid 3-chloro-2-fluoro-benzylamide] here?
**A.** 141 nM

**Q.** For `O=C(NCc1cccc(Cl)c1F)[C@@H]1C[C@@H](F)CN1C(=O)Cn1cc(C(=O)C(F)(F)F)c2ccccc21` [Example 561, (2S,4R)-4-Fluoro-1-{2-[3-(2,2,2-trifluoro-acetyl)-indol-1-yl]-acetyl}-pyrrolidine-2-carboxylic acid 3-chloro-2-fluoro-benzylamide], which IC50 is on record?
**A.** 14 nM

**Q.** `CC(=O)c1cn(CC(=O)N2[C@@H]3C[C@@H]3C[C@H]2C(=O)Nc2cccc(OC(F)(F)F)c2F)c2ncccc12` [Example 562, (1R,3S,5R)-2-[2-(3-Acetyl-pyrrolo[2,3-b]pyridin-1-yl)-acetyl]-2-aza-bicyclo[3.1.0]hexane-3-carboxylic acid (2-fluoro-3-trifluoromethoxy-phenyl)-amide] was tested. Which IC50 did it give?
**A.** 804 nM

**Q.** `O=C(CO)c1cn(CC(=O)N2C[C@H](F)C[C@H]2C(=O)NCc2cccc(Cl)c2F)c2ccccc12` [Example 563, (2S,4R)-4-Fluoro-1-{2-[3-(2-hydroxy-acetyl)-indol-1-yl]-acetyl}-pyrrolidine-2-carboxylic acid 3-chloro-2-fluoro-benzylamide] was tested. Which IC50 did it give?
**A.** 42 nM

**Q.** With `O=C(CO)c1cn(CC(=O)N2C[C@H](F)C[C@H]2C(=O)NCc2cccc(Br)c2F)c2ccccc12` [Example 564, (2S,4R)-4-Fluoro-1-{2-[3-(2-hydroxy-acetyl)-indol-1-yl]-acetyl}-pyrrolidine-2-carboxylic acid 3-bromo-2-fluoro-benzylamide] as the compound, how does the IC50 read?
**A.** 13 nM

**Q.** For `COCC(=O)c1cn(CC(=O)N2C[C@H](F)C[C@H]2C(=O)NCc2cccc(Cl)c2F)c2ccccc12` [Example 565, (2S,4R)-4-Fluoro-1-{2-[3-(2-methoxy-acetyl)-indol-1-yl]-acetyl}-pyrrolidine-2-carboxylic acid 3-chloro-2-fluoro-benzylamide], which IC50 is on record?
**A.** 369 nM

**Q.** For `NC(=O)c1cn(CC(=O)N2C[C@@](F)(CO)C[C@H]2C(=O)NCc2cccc(Cl)c2F)c2ccccc12` [Example 566, 1-{2-[(2S,4R)-2-(3-Chloro-2-fluoro-benzylcarbamoyl)-4-fluoro-4-hydroxymethyl-pyrrolidin-1-yl]-2-oxo-ethyl}-1H-indole-3-carboxylic acid amide], which IC50 is on record?
**A.** 436 nM

**Q.** For `NC(=O)c1cn(CC(=O)N2CCS[C@H]2C(=O)NCc2cccc(Cl)c2F)c2ccccc12` [Example 567, 1-{2-[(S)-2-(3-Chloro-2-fluoro-benzylcarbamoyl)-thiazolidin-3-yl]-2-oxo-ethyl}-1H-indole-3-carboxylic acid amide], which IC50 is on record?
**A.** 293 nM

**Q.** For `COC[C@@H](NC(=O)[C@@H]1C[C@H]2C[C@H]2N1C(=O)Cn1cc(C(C)=O)c2ccccc21)c1cccc(Cl)c1F` [Example 568, (1R,3S,5R)-2-[2-(3-Acetyl-indol-1-yl)-acetyl]-2-aza-bicyclo[3.1.0]hexane-3-carboxylic acid [(S)-1-(3-chloro-2-fluoro-phenyl)-2-methoxy-ethyl]-amide], which IC50 is on record?
**A.** 121 nM

**Q.** `CCO[C@H]1[C@@H](C(=O)NCc2cccc(Cl)c2F)N(C(=O)Cn2cc(C(C)=O)c3ccccc32)C[C@@H]1F` [Example 569, (2S,3S,4S)-1-[2-(3-Acetyl-indol-1-yl)-acetyl]-4-fluoro-3-ethoxy-pyrrolidine-2-carboxylic acid 3-chloro-2-fluoro-benzylamide] was tested. Which IC50 did it give?
**A.** 13 nM

**Q.** How did the IC50 turn out when `CO[C@H]1[C@@H](C(=O)N[C@H](C)c2cccc(Cl)c2F)N(C(=O)Cn2cc(C(C)=O)c3ccccc32)C[C@@H]1F` [Example 570, (2S,3S,4S)-1-[2-(3-Acetyl-indol-1-yl)-acetyl]-4-fluoro-3-methoxy-pyrrolidine-2-carboxylic acid [(R)-1-(3-chloro-2-fluoro-phenyl)-ethyl]-amide] was run?
**A.** 27 nM

**Q.** For `CO[C@H]1[C@@H](C(=O)N[C@@H](C)c2cccc(Cl)c2F)N(C(=O)Cn2cc(C(C)=O)c3ccccc32)C[C@@H]1F` [Example 571, (2S,3S,4S)-1-[2-(3-Acetyl-indol-1-yl)-acetyl]-4-fluoro-3-methoxy-pyrrolidine-2-carboxylic acid [(S)-1-(3-chloro-2-fluoro-phenyl)-ethyl]-amide], which IC50 is on record?
**A.** 99 nM

**Q.** Which IC50 does the source give for `CO[C@H]1[C@@H](C(=O)NC2(c3cccc(Cl)c3)CC2)N(C(=O)Cn2cc(C(C)=O)c3ccccc32)C[C@@H]1F` [Example 572, (2S,3S,4S)-1-[2-(3-Acetyl-indol-1-yl)-acetyl]-4-fluoro-3-methoxy-pyrrolidine-2-carboxylic acid [1-(3-chloro-phenyl)-cyclopropyl]-amide] here?
**A.** 284 nM

**Q.** Which IC50 does the source give for `CO[C@H]1[C@@H](C(=O)NC2(c3ccc(Cl)cc3)CC2)N(C(=O)Cn2cc(C(C)=O)c3ccccc32)C[C@@H]1F` [Example 573, (2S,3S,4S)-1-[2-(3-Acetyl-indol-1-yl)-acetyl]-4-fluoro-3-methoxy-pyrrolidine-2-carboxylic acid [1-(4-chloro-phenyl)-cyclopropyl]-amide] here?
**A.** 865 nM
